Where “and” joins values, the source holds several entries; their conditions need not be identical. Equal values may be shown once. Read-outs that look alike come from different tables or passages of the source. Blank lines part the entries; values can stand above or below the compound they belong to.
What was measured:
[1] = for Δct measured between the IV and PO data, free (+)-catechin / Δct measured between the IV and PO data, total (+)-catechin: PO vs IV; for plasma concentration (cc) of the free monomeric (+)-catechin / plasma concentration (cc) of the total monomeric (+)-catechin: 25 mg/kg (+)-catechin equivalent
Experimental: The experimental results described below were obtained on the basis of a study carried out in healthy human beings and in healthy Wistar rats weighing approximately 250 grams.
An acclimation period was observed before beginning the experiments.
The rats received an administration per os of a volume of 5 ml of a solution of active product.
With regard to taking the blood samples from the rats and from the human beings, the blood was collected in tubes internally coated with EDTA and was then centrifuged at 3000 rpm (revolutions per minute) at ambient temperature for 45 min, and then for 15 min at a temperature of 4° C. The plasma was then collected and stored at −70° C. before analysis.
The analytical technique (LC-MS/MS for Liquid Chromatography coupled to tandem Mass Spectrometry) for measuring the active substance in the blood was based on the method described by Mata-Bilbao et al., published in 2007 in the Journal of Agricultural and Food Chemistry, volume 55, page 8857.
The free (+)-catechin was extracted from the plasma with a solution of phosphoric acid, EDTA and ascorbic acid and was then purified by SPE (solid phase extraction); in particular, it is an Oasis™ HLB extraction which is analyzed by LC-MS/MS. The quantification was carried out according to a standard calibration procedure with (+/−)-catechin-2,3,4-^13C3 as internal standard (SI).
The procedure is identical with regard to the extraction and the quantification of free quercetin or ECGC in the blood.
With regard to the extraction and quantification of the total (+)-catechin, the procedure is the same as that applied to the free (+)-catechin, with the exception of the fact that an additional step prior to the purification by SPE is carried out.
(§1) Each of the mixtures is then solubilized in water.
Each of the mixtures is solubilized in water.

[2] = format: in vivo, Wistar rats; conditions: IV, rats; for plasma concentration (cc) of the free monomeric (+)-catechin / plasma concentration (cc) of the total monomeric (+)-catechin: 25 mg/kg (+)-catechin equivalent
From the text: as §1

collagen of rat skin = test: Total incorporation and incorporation into collagen of 3H-proline in the skin; format: in vivo, Wistar rats; conditions: for increase in the level of incorporation: 100 mg/kg by gavage, vs control subgroup
Experimental: To do this, a study was carried out in vivo on a batch of 24 female Wistar rats weighing from 95 to 115 g, divided into two groups C and D, each of 12 rats. For each group, the radioactive 3H-hydroxyproline, the specific activity of which is 13.6 Ci/10-3 mol, was administered to all the animals by intraperitoneal injection of 3H-proline at a dose, relative to the weight of the individuals, of 1 mCi/kg, which represents an activity in terms of radioactive 3H-proline of 100 μCi/individual.
6 rats of each group received a treatment based on monomeric (+)-catechin by gavage in a proportion of 100 mg/kg for 5 days before sacrifice. […] The group C received monomeric (+)-catechin hydrochlorolysinate, while the group D received monomeric (+)-catechin ascorbolysinate.
In table 8, the level of incorporation is measured by the number of disintegrations of the radioactive 3H-hydroxyproline per minute (dpm) per mg of dry weight. The higher this number, the higher the concentration of 3H-hydroxyproline.
In this comparative example, a group E of 12 Wistar rats weighing from 95 to 115 g, in which radioactive 3H-hydroxyproline, the specific activity of which is 13.6 Ci/10-3 mol, was administered to all the individuals by intraperitoneal injection of 3H-proline at a dose, relative to the weight of the individuals, of 1 mCi/kg, which represents an activity in terms of radioactive 3H-proline of 100 μCi/individual.
6 rats of each group received a treatment based on pure monomeric (+)-catechin by gavage in a proportion of 100 mg/kg for 5 days before sacrifice.

[3] = tested on: monoclonal immunoglobulins (IgM); test: Treatment of a patient with lymphoplasmocytic lymphoma (Waldenström macroglobulinemia type): IgM assay; format: in vivo, human; conditions: one patient
Experimental: In the first patient a lymphoplasmocytic lymphoma (of Waldenström macroglobulinemia type) was detected during a post-operative blood test on day Do. The diagnosis is based on the electrophoretic detection of a monoclonal peak of immunoglobulins (IgM). This diagnosis was reconfirmed and the peak was assayed during a second analysis using the same detection by electrophoresis.
These immunoglobulins are found at a high concentration in the blood and in the urine. They therefore constitute real tumor markers. The assaying thereof gives an account of the number of sick cells and the extent of the disease and, consequently, makes it possible to monitor its progression under treatment.
Successive blood tests gave the following data for the IgM assay (in mg per 100 ml of plasma): […]

[4] = tested on: clear cell renal carcinoma; test: Treatment of a patient with renal adenocarcinoma; format: in vivo, human; conditions: DT+19 months, reconfirmed DT+23 months; one patient, 500 mg per day orally, after nephrectomy, dissections and radiotherapy
Experimental: In the second patient, a left subclavicular cervical adenopathy was first of all detected on day Do. Next, 2 weeks later, a left renal adenocarcinoma was detected for this patient, which was followed by a nephrectomy of the left kidney 3 days after the detection of the adenocarcinoma in this kidney.
Thereafter, on day D0+3 months, a left cervical lymph node dissection is performed on the patient. This procedure was followed by a series of 15 radiotherapy sessions.
Starting from day D0+15 months (that is to say on day DT), the patient was orally administered a tablet of 500 mg of (+)-catechin hydrochlorolysinate per day.
On day DT+15 months, the appearance of a pathological mediastinal adenopathy (45 cm^3 in volume) was observed and required a mediastinal lymph node dissection followed by a pulmonary examination on day DT+17 months.

gastric mucosa = test: Incidence of gastric ulcers and histamine level in the gastric mucosa in Mastomys; format: in vivo
Experimental: In this example, a sample of n=48 Mastomys are sensitized a first time by intraperitoneal injection of 3 μg of ovalbumin dissolved in 0.2 ml of saline solution containing 1 mg of aluminum hydroxide which brings about anti-immunoglobulin E (IgE) and G (IgG) antibodies. After 7 days, a second injection of 1 mg of ovalbumin in 0.01 ml of saline solution is given in the gastric mucosa at the level of the corpus of the anesthetized animals, which causes an ulcerated lesion at the actual site of the injection.
The 48 rats are divided up into three groups: one of 24 and two of 12 individuals. The first group of 24 individuals (G1) received a placebo (concentrated NaCl solution at 0.15 M).
The histamine level is measured for the G1, G2 and G3 groups on the basis of a sample of n=12 individuals.

[5] = 25 mg/kg, rats, listed as C:Lys:HCl/1:2:2, 25 mg/kg
[6] = free (+)-catechin, rats, per os, dose equivalent to 25 mg/kg (+)-catechin, 5 Wistar rats, pulverulent mixture solubilized in water
[7] = treated, 100 mg/kg by gavage for 5 days, per mg of dry weight
[8] = G3, n = 12, 100 mg intraperitoneally
[9] = oral administration, vs placebo

Compound: Cl.Cl.Cl.Cl.Cl.NCCCCC(N)C(=O)O.NCCCCC(N)C(=O)O.NCCCCC(N)C(=O)O.NCCCCC(N)C(=O)O.NCCCCC(N)C(=O)O.Oc1cc(O)c2c(c1)O[C@H](c1ccc(O)c(O)c1)[C@@H](O)C2.Oc1cc(O)c2c(c1)O[C@H](c1ccc(O)c(O)c1)[C@@H](O)C2 [1:2.5:2.5]
- ct, value reported on the curve in FIG. 5 ([1]; rat, in vivo, 25 mg/kg): 105 k ng min/ml

Compound: Cl.Cl.Cl.NCCCCC(N)C(=O)O.NCCCCC(N)C(=O)O.NCCCCC(N)C(=O)O.Oc1cc(O)c2c(c1)O[C@H](c1ccc(O)c(O)c1)[C@@H](O)C2 [1:3:3, reference compound]
- ct, calculated value ([1]; rat, in vivo, 25 mg/kg): 38 k ng min/ml

Compound: Cl.Cl.Cl.Cl.Cl.NCCCCC(N)C(=O)O.NCCCCC(N)C(=O)O.NCCCCC(N)C(=O)O.NCCCCC(N)C(=O)O.NCCCCC(N)C(=O)O.Oc1cc(O)c2c(c1)O[C@H](c1ccc(O)c(O)c1)[C@@H](O)C2 [1:5:5, reference compound]
- ct, calculated value ([1]; rat, in vivo, 25 mg/kg): 26 k ng min/ml

Compound: O=C(O[C@@H]1Cc2c(O)cc(O)cc2O[C@@H]1c1cc(O)c(O)c(O)c1)c1cc(O)c(O)c(O)c1 [EGCG, epigallocatechin gallate, reference compound]
- plasma levels measured (below the reliable limits of detection) ([1]; EGCG, rats, per os, dose equivalent to 25 mg/kg polyphenol): below 250 ng/ml

- Δct^q (difference of ct to QP, related back to QP) ([1]; Wistar, rat, in vivo, 25 mg/kg): 0%
Compound: O=c1c(O)c(-c2ccc(O)c(O)c2)oc2cc(O)cc(O)c12 [QP, quercetin, reference compound]

Compound: Cl.Cl.NCCCCC(N)C(=O)O.NCCCCC(N)C(=O)O.Oc1cc(O)c2c(c1)O[C@H](c1ccc(O)c(O)c1)[C@@H](O)C2 [[C:Lys:HCl/1:2:2]]
- total plasma concentration (ct) of the free monomeric (+)-catechin ([2]; 25 mg/kg): 87 970 ng min/ml
- total plasma concentration (ct) of the total monomeric (+)-catechin ([2]; 25 mg/kg): 277 040 ng min/ml
- plasma concentration (cc) of the free monomeric (+)-catechin ([2]; T 10 min): 3340 ng/mL
- plasma concentration (cc) of the total monomeric (+)-catechin ([2]; T 10 min): 8066 ng/mL
- plasma concentration (cc) of the free monomeric (+)-catechin ([2]; T 30 min): 991 ng/mL
- plasma concentration (cc) of the total monomeric (+)-catechin ([2]; T 30 min): 2639 ng/mL
- plasma concentration (cc) of the free monomeric (+)-catechin ([2]; T 60 min): 291 ng/mL
- plasma concentration (cc) of the total monomeric (+)-catechin ([2]; T 60 min): 1191 ng/mL
- plasma concentration (cc) of the free monomeric (+)-catechin ([2]; T 120 min): 0 ng/mL
- plasma concentration (cc) of the total monomeric (+)-catechin ([2]; T 120 min, 25 mg/kg): 340 ng/mL and 338 ng/mL
- plasma concentration (cc) of the free monomeric (+)-catechin ([2]; T 240 min): 0 ng/mL
- plasma concentration (cc) of the total monomeric (+)-catechin ([2]; T 240 min): 0 ng/mL
- Δct measured between the IV and PO data, free (+)-catechin ([1]; 25 mg/kg, rats, 25 mg/kg): 88%
- Δct measured between the IV and PO data, total (+)-catechin ([1]; 25 mg/kg, rats, 25 mg/kg): 73%
- Δct measured between the IV and PO data, free (+)-catechin [1, 5]: +88%
- Δct measured between the IV and PO data, total (+)-catechin [1, 5]: +73%
- total plasma concentration (ct) of the total monomeric (+)-catechin ([1]; PO, 25 mg/kg, rats): 479 585 ng min/ml
- plasma concentration (cc) of the free monomeric (+)-catechin ([1]; PO, T 10 min, rats): 428 ng/mL
- plasma concentration (cc) of the total monomeric (+)-catechin ([1]; PO, T 10 min, rats): 1839 ng/mL
- plasma concentration (cc) of the free monomeric (+)-catechin ([1]; PO, T 30 min, rats): 1027 ng/mL
- plasma concentration (cc) of the total monomeric (+)-catechin ([1]; PO, T 30 min, rats): 3780 ng/mL
- plasma concentration (cc) of the free monomeric (+)-catechin ([1]; PO, T 60 min, rats): 1188 ng/mL
- plasma concentration (cc) of the total monomeric (+)-catechin ([1]; PO, T 60 min, rats): 3190 ng/mL
- plasma concentration (cc) of the free monomeric (+)-catechin ([1]; PO, T 120 min, rats): 767 ng/mL
- plasma concentration (cc) of the total monomeric (+)-catechin ([1]; PO, T 120 min, rats): 1990 ng/mL
- plasma concentration (cc) of the free monomeric (+)-catechin ([1]; PO, T 240 min, rats): 179 ng/mL
- plasma concentration (cc) of the total monomeric (+)-catechin ([1]; PO, T 240 min, rats): 475 ng/mL
- T (max) [1, 6]: 1 h
- c (max) [1, 6]: 1200 ng/mL

- Δct^q (difference of ct to QP, related back to QP) ([1]; rat, in vivo, 25 mg/kg): +18%
Compound: Cl.Cl.NCCCCC(N)C(=O)O.NCCCCC(N)C(=O)O.O=c1c(O)c(-c2ccc(O)c(O)c2)oc2cc(O)cc(O)c12 [[Q:Lys:HCl/1:2:2], reference compound]

Compound: monomeric (+)-catechin ascorbolysinate
- increase in the level of incorporation (collagen of rat skin): +14%

Compound: monomeric (+)-catechin hydrochlorolysinate [[C:Lys:HCl/1:1:1]]
- IgM level in the blood ([3]; DT + 4 months, tablet of 500 mg per day from day DT (IgM 2931 on DT)): 2417 mg/100 ml
- IgM level in the blood ([3]; DT + 9 months, tablet of 500 mg per day from day DT): 2410 mg/100 ml
- IgM level in the blood ([3]; DT + 15 months, tablet of 500 mg per day from day DT): 2412 mg/100 ml
- status of the clear cell renal carcinoma (consultation report) [4]: complete remission
- increase in the level of incorporation (collagen of rat skin): +15%
- level of incorporation into collagen (IC) of 3H-hydroxyproline in rat skin (collagen of rat skin; [7]): 1343 ± 48 dpm/mg
- level of total incorporation (IT) of 3H-hydroxyproline in rat skin (collagen of rat skin; [7]): 6248 ± 124 dpm/mg
- HL (histamine level in the gastric mucosa) (gastric mucosa; G2, n = 12, per os twice a day (2×300 mg)): 37.91 ± 3.73 10^−6 mg/kg of protein
- NU (number of animals exhibiting a gastric ulcer) (gastric mucosa; G2, n = 12, per os twice a day (2×300 mg), two days before and three days after injection): 5
- HL (histamine level in the gastric mucosa) (gastric mucosa; [8]): 34.98 ± 3.52 10^−6 mg/kg of protein
- NU (number of animals exhibiting a gastric ulcer) (gastric mucosa; [8]): 6
- decrease in the histamine level (HL) in the gastric mucosa (gastric mucosa; [9]): −18%
- decrease in the number of animals exhibiting a gastric ulcer (NU) (gastric mucosa; [9]): −72%

— patent publication US9844595B2, “Composition comprising a complex of (+)-catechin and amino acid for the treatment and prevention of cancer” (VALORE, priority 2013, dated 2017)
